The values below come from ChEMBL document CHEMBL4414657, “Psiguadiols A-J, Rearranged Meroterpenoids as Potent PTP1B Inhibitors from Psidium guajava” (J Nat Prod, 2019).

pIC50: −log10 of the molar value.

In experiment [1] the target is T1, Tyrosine-protein phosphatase non-receptor type 1 (Homo sapiens, UniProt P18031).
T1 sequence (P18031 whole entry): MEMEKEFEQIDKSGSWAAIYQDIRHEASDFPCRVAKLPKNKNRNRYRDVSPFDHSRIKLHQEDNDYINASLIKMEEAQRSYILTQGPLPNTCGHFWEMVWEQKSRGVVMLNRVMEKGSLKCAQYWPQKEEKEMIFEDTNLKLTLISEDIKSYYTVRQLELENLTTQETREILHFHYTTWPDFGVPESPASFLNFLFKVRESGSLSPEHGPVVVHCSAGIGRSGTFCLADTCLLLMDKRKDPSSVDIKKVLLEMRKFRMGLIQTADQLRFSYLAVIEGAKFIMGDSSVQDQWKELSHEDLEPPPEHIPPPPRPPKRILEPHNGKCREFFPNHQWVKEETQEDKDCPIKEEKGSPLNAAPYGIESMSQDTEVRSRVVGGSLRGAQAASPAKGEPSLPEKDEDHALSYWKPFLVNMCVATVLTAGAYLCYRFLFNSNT
In words: Inhibition of PTP1B (unknown origin) using pNPP as substrate incubated for 30 mins by ELISA. A general note: ELISA stands for enzyme-linked immunosorbent assay.

Experiment [2] concerns the target T2, Tyrosine-protein phosphatase non-receptor type 1 (Homo sapiens) (UniProt P18031).
T2 sequence (whole entry): T1 sequence (P18031 whole entry)
In words: Inhibition of PTP1B (unknown origin) at 20 ug/ml using pNPP as substrate incubated for 30 mins by ELISA relative to control.

As for `CC(C)[C@@H]1CC[C@@H](C)[C@H]2C[C@]34O[C@H]([C@@]21O)[C@@]3(C)Oc1c(C=O)c(O)c(C=O)c(O)c1[C@H]4c1ccccc1`, in experiment [1], the pIC50 is 4.72. In addition, the inhibition in experiment [2] was more than 96%.

In the case of `CC(C)[C@@H]1CC[C@@H](C)[C@H]2C[C@@]3(O)[C@H](c4ccccc4)c4c(O)c(C=O)c(O)c(C=O)c4O[C@]3(C)C=C12`, in experiment [1], the pIC50 was 5.21. Further, the inhibition in experiment [2] was more than 96%.

On to `C=C1CC[C@@H]2[C@H]([C@@H]3Oc4c(C=O)c(O)c(C=O)c(O)c4[C@H](c4ccccc4)[C@@]3(C)CC[C@H]1O)C2(C)C`, for which the pIC50 in experiment [1] is 4.64. In experiment [2], this molecule came in with an inhibition of more than 96%.

In the case of `CC(C)[C@@H]1CC[C@@H](C)[C@]23C[C@@H]4[C@H](c5ccccc5)c5c(O)c(C=O)c(O)c(C=O)c5O[C@]4(C)[C@@H](O)[C@]12O3`, the pIC50 in experiment [1] is 4.97. The same molecule registered an inhibition in experiment [2] of more than 96%.

`C=C1CC[C@@H]2[C@H]([C@@H]3Oc4c(C=O)c(O)c(C=O)c(O)c4[C@H](c4ccccc4)[C@@]3(C)CC[C@@H]1O)C2(C)C` gave a pIC50 in experiment [1] of 4.64. The molecule also gave an inhibition in experiment [2] of more than 96%.

For the molecule `C=C1CC[C@@H]2[C@H](CC2(C)C)[C@@]2(CC[C@H]1O)C[C@H](c1ccccc1)c1c(O)c(C=O)c(O)c(C=O)c1O2`, in experiment [1], the pIC50 is 5.33. Besides, in experiment [2], the inhibition is more than 96%.

`C/C1=C/C[C@@H]2[C@H](CC2(C)C)[C@@]2(CC[C@H]1O)C[C@H](c1ccccc1)c1c(O)c(C=O)c(O)c(C=O)c1O2`: the pIC50 in experiment [1] is 4.92. In addition, the inhibition in experiment [2] was more than 96%.

Consider `C=C1CC[C@@H]2[C@H](CC2(C)C)[C@@]2(CC[C@@H]1O)C[C@H](c1ccccc1)c1c(O)c(C=O)c(O)c(C=O)c1O2`, for which, in experiment [1], the pIC50 is 4.96. Further, the inhibition in experiment [2] is more than 96%.

Molecule `CC(C)[C@@H]1CC[C@@H](C)[C@]2(O)C[C@@H]3[C@H](c4ccccc4)c4c(O)c(C=O)c(O)c(C=O)c4O[C@]3(C)C=C12` showed a pIC50 in experiment [1] of 4.72. The same molecule gave an inhibition in experiment [2] of more than 96%.

`C/C1=C/C[C@@H]2[C@H]([C@@H]3Oc4c(C=O)c(O)c(C=O)c(O)c4[C@H](c4ccccc4)[C@@]3(C)CC[C@@H]1O)C2(C)C` gave a pIC50 in experiment [1] of 5.04. Moreover, in experiment [2], the inhibition was more than 96%.

What is called pIC50 is the negative decadic logarithm of the IC50, by convention in mol/L. Read a low pIC50 as a high IC50. For orientation: inhibition means the percentage by which the read-out fell short of the control. A higher inhibition goes with a response far below the control.
